Assay results as given in patent US8163795B2, “Chroman derivatives, medicaments and use in therapy” (Marshall Edwards, Inc., priority 2004, dated 2012).
Where “and” joins values, the source holds several entries; their conditions need not be identical. Equal values may be shown once. Read-outs that look alike come from different tables or passages of the source.

Key:
[1] = Toxicity in HPAC tumour bearing mice (weight, histopathology, serum biochemistry); format: in vivo, Athymic nu/nu BALB/c mice
Source text: Subconfluent (80%) flasks of HPAC cells were trypsinised, washed in Hanks balanced salt solution (Sigma), resuspended in dubellco's minimal essential medium (Sigma) and an equal volume of Matrigel™ (Becton Dickson) at a density of 3.7×10^7 cells per ml. Athymic nu/nu BALB/c mice were s.c. inoculated with 3.7×10^6 HPAC cells bi-laterally midway along the dorsal surface. For the HMC (n=3 per dosage regimen) and control groups (n=2), treatment commenced five days post inoculation to allow tumour formation. HMC was formulated 20% HPBCD and delivered i.p. daily for 15 days. The control group received equivalent (weight:weight) i.p. doses of 20% HPBCD. Tumour measurements commenced on day 5 post inoculation (10×10 mm^2) and were measured in 2 dimensions, length (a) and width (b), using calipers. Tumor weight (W) was calculated by the formula W=ab2/2, where a, is the longer of the 2 measurements (Odwyer et al., 1994). Tumour proliferation curves were analyzed with respect to maximal tumour inhibition (treated/control, TIC). On sacrifice, liver, kidney, femur, stomach and colon tissue were fixed in buffered formalin, embedded in paraffin, sections cut and stained with H&E. Stained sections were then submitted to Rothwell consulting for histopathology analysis. Serum biochemistry was conducted on bloods taken from control, vehicle control and HMC treatment groups. Serum analysis was conducted by Veterinary Clinical pathology (U. Syd).
Histopathological examination of haematoxylin and eosin-stained sections cut from formalin-fixed tissues from two series of experimental mice was made. The liver, kidney, stomach and colon were examined for evidence of toxic damage, the spleen and bone marrow for evidence of myelosuppression and the tumour for degree of necrosis. A score of 0-5 was allocated to each tumour specimen for the degree of necrosis present, a 0 score representing, no necrosis and a score of 5, total necrosis. The sections were scored ‘blind’ on two separate occasions and the final score given in the results is the mean of these two scores.
Alakalines phosphatase (ALP), alanine transferase (ALT) and creatine (Cre) were assessed in HMC treated vs control animals. ALP and Cre levels were similar to control and fell within normal ranges (for rat) however, ALT levels in vehicle control and HMC treated groups were much lower than no treatment control levels.

[2] = test system: HPAC (CRL-2119) pancreatic cancer cell line; assay: Proliferation assay (MTT); format: cell-based, human; conditions: Homo sapiens, HPAC, read-out: IC50
MM200 melanoma cell line = assay: Proliferation assay (MTT); format: cell-based; conditions: read-out: IC50
RM melanoma cell line = assay: Proliferation assay (MTT); format: cell-based; conditions: Table 15
Outline: (§1)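 Seed cells at growth-kinetics-derived density; treat with compounds for 5 days at 37° C in humidified 5% CO2; add MTT for 3-4 hrs at 37° C; plot % of control proliferation against log dose to obtain IC50.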

[3] = test system: PC3 prostate cancer cell line; assay: Proliferation assay (MTT); format: cell-based
Outline: as §1

[4] = test system: SKMe128 melanoma cell line; assay: Proliferation assay (MTT); format: cell-based; conditions: Table 15
Outline: as §1

LNCaP (Prostate) = assay: Proliferation assay (MTT); format: cell-based; conditions: Homo sapiens, Table 2.1
Outline: as §1

NCI-H23 (Lung) = assay: Proliferation assay (MTT); format: cell-based; conditions: Homo sapiens, Table 2.1
Outline: as §1

MM96L melanoma cell line = assay: Proliferation assay (MTT); format: cell-based; conditions: Homo sapiens, Table 15
Outline: as §1

IGR-3 (Melanoma) = assay: Proliferation assay (MTT); format: cell-based
Outline: as §1

DU145 (Prostate) = assay: Proliferation assay (MTT); format: cell-based; conditions: Homo sapiens, DU-145, Table 2.1
Outline: as §1

HTB-138 (Glioma) = assay: Proliferation assay (MTT); format: cell-based; conditions: Table 2.1; Glioma HTB-138
Outline: as §1

4405 melanoma cell line = assay: Proliferation assay (MTT); format: cell-based; conditions: Table 15; melanoma 4405
Outline: as §1

HCT-15 (Colorectal) = assay: Proliferation assay (MTT); format: cell-based; conditions: Homo sapiens; Table 2.1; Colorectal HCT-15
Outline: as §1

HT-29 (Colorectal) = assay: Proliferation assay (MTT); format: cell-based; conditions: Homo sapiens, Colorectal HT-29
Outline: as §1

[5] = test system: MCF-7 breast cancer cell line; assay: Proliferation assay (MTT); format: cell-based; conditions: Homo sapiens, MCF7; Table 2.1; Breast MCF-7
Outline: as §1

NCI-H460 (Lung) = assay: Proliferation assay (MTT); format: cell-based; conditions: Homo sapiens
Outline: as §1

A2780 (Ovarian) = assay: Proliferation assay (MTT); format: cell-based; conditions: Homo sapiens, Table 2.1
Outline: as §1

CCRF-CEM (Leukemic) = assay: Proliferation assay (MTT); format: cell-based; conditions: Homo sapiens, CCRF-CEM
Outline: as §1

[6] = test system: TRAIL-sensitive and -resistant melanoma cells; assay: Apoptosis incidence, statements over several melanoma cell lines; format: cell-based; conditions: for incidence of apoptosis: 4 μM
[7] = individual HMC treated mice, 100 mg/kg, listed as HMC

SMILES: COc1ccc(C2c3ccc(O)cc3OCC2c2ccc(O)cc2)cc1 (centres unmarked) [Compound 1, 3-(4-hydroxyphenyl)-4-(4-methoxyphenyl)chroman-7-ol]
- toxicity as determined by weight loss ([1]; 100 mg/kg daily for 15 days): no signs of toxicity
- toxicity to major organs by histopathology ([1]; 100 mg/kg to mice): not toxic to major organs
- ALP (serum) [1, 7]: 111 U/L and 100 U/L and 74 U/L
- ALT (serum) [1, 7]: 482 U/L and 494 U/L and 505 U/L
- Cre (serum) [1, 7]: 8 uM (2×) and 17 uM
- Urea (serum) [1, 7]: 8.11 mM and 7.79 mM and 7.27 mM
- IC50 ([2]; Table 2.1, Pancreatic CRL-2119): 14100 ± 1160 nM
- IC50 ([2]; Table 2.2, Pancreatic HPAC): 2800 ± 900 nM
- IC50 (MM200 melanoma cell line; Table 2.1, Melanoma MM200): 700 ± 30 nM
- IC50 (MM200 melanoma cell line; Table 2.2, Melanoma MM200): 1070 ± 500 nM
- IC50 (MM200 melanoma cell line; Table 15, melanoma MM200, monotherapy): 1130 ± 520 nM
- IC50 (RM melanoma cell line): 1400 ± 1600 nM
- IC50 ([3]; Table 2.1): 2900 ± 920 nM
- IC50 ([3]; Table 2.2): 2500 ± 1000 nM
- IC50 [4]: 680 ± 160 nM
- IC50 (LNCaP (Prostate)): 4520 nM
- IC50 (NCI-H23 (Lung)): 3750 ± 2500 nM
- IC50 (MM96L melanoma cell line): 1310 ± 380 nM
- IC50 (IGR-3 (Melanoma); Table 2.1, Melanoma IGR-3): 530 ± 20 nM
- IC50 (IGR-3 (Melanoma); Table 15, melanoma IgR3): 510 ± 80 nM
- IC50 (DU145 (Prostate)): 3780 nM
- IC50 (HTB-138 (Glioma)): 1900 ± 270 nM
- IC50 (4405 melanoma cell line): 1460 ± 180 nM
- IC50 (HCT-15 (Colorectal)): 37800 ± 33000 nM
- IC50 (HT-29 (Colorectal); HT-29, Table 2.1): 3700 ± 1400 nM
- IC50 (HT-29 (Colorectal); HT-29, Table 2.2): 5400 ± 1800 nM
- IC50 [5]: 7150 ± 7000 nM
- IC50 (NCI-H460 (Lung); NCI-H460, Table 2.1, Lung NCI-H460): 2230 ± 150 nM
- IC50 (NCI-H460 (Lung); NCI-H460, Table 2.2, NSC Lung NCI-H460): 2800 ± 2000 nM
- IC50 (A2780 (Ovarian)): 1580 ± 590 nM
- IC50 (CCRF-CEM (Leukemic); Table 2.1, Leukemic CCRF-CEM): 1900 nM
- IC50 (CCRF-CEM (Leukemic); Table 2.2, Leukaemia CCRF-CEM): 2000 ± 970 nM
- apoptosis ([6]; 2 μM, 24 and 48 hrs of exposure, all TRAIL-sensitive and -resistant melanoma cells): 7-10%
- incidence of apoptosis ([6]; 24 hr exposure, the other cell lines (not MEL-RM, IGR3)): ~9%
- incidence of apoptosis ([6]; 48 hr, all cell lines examined): 21-42%
